{"source": "patent US20250262331A1", "about": "“COMPOSITION AND METHODS FOR IMPROVING SIGNS AND SYMPTOMS OF OCULAR DISORDERS” (Azura Ophthalmics Ltd., priority 2022, published 2025)", "system": "sebaceous cells", "experiment": "Preclinical sebum production in sebaceous cells", "assay_type": "cell-based", "details": "preclinical data; lower effect observed at higher concentrations", "data": [{"smiles": "S=[Se]=S", "note": "[selenium disulfide]", "values": [{"measurement": "effect on sebum production in sebaceous cells", "result": "non-linear dose response"}]}]}
